The results in this text go back to patent publication US9000159B2 (Glenmark Pharmaceuticals, S.A., priority 2009, dated 2015).

As a reminder, the inhibition is the relative decrease from the control value, in per cent. In general, IC50 refers to the concentration that gives 50% inhibition.

Molecules are shown by their SMILES.

This assay addresses T1, Human TRPA1 (Homo sapiens, UniProt O75762).
T1 construct: expressed in transfected cells; host or cells: CHO cells
The experiment in a line: 45Calcium uptake assay: inhibition of AITC induced cellular uptake of radioactive calcium. Type of assay: cell-based. Particulars: AITC (30 μM) induced 45Ca uptake, Human TRPA1 expressing CHO cells; for inhibition at 1 µM: 1.0 μM test compound, read-out: Percentage inhibition at 1.0 μM; for inhibition at 10 µM: 10.0 μM test compound, read-out: Percentage inhibition at 10.0 μM; for IC50: read-out: Human IC50 value (range). Summed up: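 CHO cells stably expressing human TRPA1 (~50,000/well) preincubated 10 min with compound (0.5% DMSO, medium with 0.1% BSA, 1.8 mM CaCl2), then 30 μM AITC plus 5 μCi/ml 45Ca2+ for 3 min. Lysate radioactivity counted by scintillation; IC50 by nonlinear regression of % maximal uptake.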

T1 sequence (O75762 whole entry): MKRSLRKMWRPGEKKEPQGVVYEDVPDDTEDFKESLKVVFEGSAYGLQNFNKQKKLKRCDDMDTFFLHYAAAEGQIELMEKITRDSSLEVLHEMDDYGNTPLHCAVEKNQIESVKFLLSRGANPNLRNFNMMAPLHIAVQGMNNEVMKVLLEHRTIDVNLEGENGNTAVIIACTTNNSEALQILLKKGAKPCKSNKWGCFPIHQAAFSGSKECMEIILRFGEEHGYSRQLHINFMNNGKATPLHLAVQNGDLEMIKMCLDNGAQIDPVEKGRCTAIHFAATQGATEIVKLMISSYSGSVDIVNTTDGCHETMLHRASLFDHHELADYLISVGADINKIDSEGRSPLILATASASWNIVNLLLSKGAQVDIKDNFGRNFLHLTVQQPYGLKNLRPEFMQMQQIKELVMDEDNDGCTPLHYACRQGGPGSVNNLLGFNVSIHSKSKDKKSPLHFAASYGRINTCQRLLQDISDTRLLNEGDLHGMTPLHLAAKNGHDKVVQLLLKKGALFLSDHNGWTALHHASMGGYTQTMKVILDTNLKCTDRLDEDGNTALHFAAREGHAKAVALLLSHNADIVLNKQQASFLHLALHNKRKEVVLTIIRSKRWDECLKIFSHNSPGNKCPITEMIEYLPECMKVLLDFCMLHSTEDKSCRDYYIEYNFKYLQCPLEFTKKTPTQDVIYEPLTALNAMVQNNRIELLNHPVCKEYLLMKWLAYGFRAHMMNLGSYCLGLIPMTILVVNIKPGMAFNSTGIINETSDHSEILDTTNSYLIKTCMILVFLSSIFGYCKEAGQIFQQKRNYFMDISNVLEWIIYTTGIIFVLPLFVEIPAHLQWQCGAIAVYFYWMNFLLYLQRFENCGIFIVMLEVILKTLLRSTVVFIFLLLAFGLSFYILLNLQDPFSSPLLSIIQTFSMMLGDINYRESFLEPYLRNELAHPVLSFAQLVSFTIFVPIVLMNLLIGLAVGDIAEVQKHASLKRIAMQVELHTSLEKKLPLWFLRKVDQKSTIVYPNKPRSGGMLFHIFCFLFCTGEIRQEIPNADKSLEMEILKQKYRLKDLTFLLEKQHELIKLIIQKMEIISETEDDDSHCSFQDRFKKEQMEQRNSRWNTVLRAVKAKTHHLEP

As for `Cn1c(=O)c2c(ccn2CC(=O)Nc2nc(-c3cc(F)c(OCC4CCC4)c(F)c3)cs2)n(C)c1=O` [Example 18, 2-(1,3-Dimethyl-2,4-dioxo-1,2,3,4-tetrahydro-5H-pyrrolo[3,2-d]pyrimidin-5-yl)-N-{4-[4-(cyclobutylmethoxy)-3,5-difluorophenyl]-1,3-thiazol-2-yl}acetamide], the inhibition at 1 µM worked out at 38.4% and the inhibition at 10 µM was 38.7%.
As to `Cn1c(=O)c2c(ccn2CC(=O)Nc2nc(-c3ccc(OCC(F)(F)F)c(Br)c3)cs2)n(C)c1=O` [Example 23, N-{4-[3-Bromo-4-(2,2,2-trifluoroethoxy)phenyl]-1,3-thiazol-2-yl}-2-(1,3-dimethyl-2,4-dioxo-1,2,3,4-tetrahydro-5H-pyrrolo[3,2-d]pyrimidin-5-yl)acetamide], the inhibition at 1 µM was determined as 87.4%, the inhibition at 10 µM was 92.2% and the 50% inhibitory concentration (IC50) lay in the range of 50 to 100 nM.
With `Cc1cc2c(c(=O)n(C)c(=O)n2C)n1CC(=O)Nc1nc(-c2ccc(OCC(C)(C)C)c(F)c2)cs1` [Example 31, N-{4-[4-(2,2-Dimethylpropoxy)-3-fluorophenyl]-1,3-thiazol-2-yl}-2-(1,3,6-trimethyl-2,4-dioxo-1,2,3,4-tetrahydro-5H-pyrrolo[3,2-d]pyrimidin-5-yl)acetamide], the inhibition at 1 µM came out at 87.4%, the inhibition at 10 µM was found to be 95.3% and the IC50 was 50 to 100 nM.
On to `Cn1nc2c(c1CC(=O)Nc1nc(-c3cccc(C(F)(F)F)c3)cs1)c(=O)n(C)c(=O)n2C` [Example 48, N-{4-[3-(Trifluoromethyl)phenyl]-1,3-thiazol-2-yl}-2-(2,5,7-trimethyl-4,6-dioxo-4,5,6,7-tetrahydro-2H-pyrazolo[3,4-d]pyrimidin-3-yl)acetamide], for which the inhibition at 1 µM came to 92.8%, the inhibition at 10 µM came out at 97.5% and the IC50 is 50 to 100 nM.
As to `Cn1c(=O)c2c(ccn2CC(=O)Nc2nc(-c3ccc(Cl)c(Cl)c3Cl)cs2)n(C)c1=O` [Example 5, 2-(1,3-Dimethyl-2,4-dioxo-1,2,3,4-tetrahydro-5H-pyrrolo[3,2-d]pyrimidin-5-yl)-N-[4-(2,3,4-trichlorophenyl)-1,3-thiazol-2-yl]acetamide], the inhibition at 1 µM came to 55.3% and the inhibition at 10 µM turned out to be 82.3%.
As to `Cn1c(=O)c2c(ccn2CC(=O)Nc2nc(-c3cc(Cl)c(OCC(C)(C)C)c(Cl)c3)cs2)n(C)c1=O` [Example 13, N-{4-[3,5-Dichloro-4-(2,2-dimethylpropoxy)phenyl]-1,3-thiazol-2-yl}-2-(1,3-dimethyl-2,4-dioxo-1,2,3,4-tetrahydro-5H-pyrrolo[3,2-d]pyrimidin-5-yl)acetamide], the inhibition at 1 µM worked out at 86.5%, the inhibition at 10 µM was 98.8% and the IC50 was in the range of 50 to 100 nM.
As to `Cn1c(=O)c2c(CC(=O)Nc3nc(-c4cc(F)c(OCC(F)(F)F)c(F)c4)cs3)cn(C)c2n(C)c1=O` [Example 44, N-{4-[3,5-Difluoro-4-(2,2,2-trifluoroethoxy)phenyl]-1,3-thiazol-2-yl}-2-(1,3,7-trimethyl-2,4-dioxo-2,3,4,7-tetrahydro-1H-pyrrolo[2,3-d]pyrimidin-5-yl)acetamide], the inhibition at 1 µM was determined as 27.1% and the inhibition at 10 µM amounted to 77%.
For `Cc1cc2c(c(=O)n(C)c(=O)n2C)n1CC(=O)Nc1nc(-c2cc(F)c(OCC(F)(F)F)c(F)c2)cs1` [Example 26, N-[4-(3,5-Difluoro-4-(2,2,2-trifluoroethoxy)phenyl)-1,3-thiazol-2-yl]-2-(1,3,6-trimethyl-2,4-dioxo-1,2,3,4-tetrahydro-5H-pyrrolo[3,2-d]pyrimidin-5-yl)acetamide], the inhibition at 1 µM amounted to 95.3%, the inhibition at 10 µM worked out at 98.3% and the half-maximal inhibitory concentration (IC50) was less than 50 nM.
As to `Cn1c(=O)c2c(c(Br)cn2CC(=O)Nc2nc(-c3cc(F)c(OCC(C)(C)C)c(F)c3)cs2)n(C)c1=O` [Example 36, 2-(7-Bromo-1,3-dimethyl-2,4-dioxo-1,2,3,4-tetrahydro-5H-pyrrolo[3,2-d]pyrimidin-5-yl)-N-{4-[3,5-difluoro-4-(2,2-dimethylpropoxy)phenyl]-1,3-thiazol-2-yl}acetamide], the inhibition at 1 µM was found to be 35.6% and the inhibition at 10 µM is 70.1%.
For the molecule `Cn1nc2c(c1CC(=O)Nc1nc(-c3ccc(F)c(C(F)(F)F)c3)cs1)c(=O)n(C)c(=O)n2C` [Example 53, N-{4-[4-Fluoro-3-(trifluoromethyl)phenyl]-1,3-thiazol-2-yl}-2-(2,5,7-trimethyl-4,6-dioxo-4,5,6,7-tetrahydro-2H-pyrazolo[3,4-d]pyrimidin-3-yl)acetamide], the inhibition at 1 µM came out at 97.2%, the inhibition at 10 µM came to 98.6% and the IC50 is less than 50 nM.
In the same order, the values of `Cn1c(=O)c2c(ccn2CC(=O)Nc2nc(-c3cc(Cl)c(OCCC(F)(F)F)c(Cl)c3)cs2)n(C)c1=O` [Example 14, N-{4-[3,5-Dichloro-4-(3,3,3-trifluoropropoxy)phenyl]-1,3-thiazol-2-yl}-2-(1,3-dimethyl-2,4-dioxo-1,2,3,4-tetrahydro-5H-pyrrolo[3,2-d]pyrimidin-5-yl)acetamide] are 92.5%, 92.5% and less than 50 nM.
Regarding `Cn1c(=O)c2c(ccn2CC(=O)Nc2nc(-c3ccc(F)cc3F)cs2)n(C)c1=O` [Example 1, N-[4-(2,4-Difluorophenyl)-1,3-thiazol-2-yl]-2-(1,3-dimethyl-2,4-dioxo-1,2,3,4-tetrahydro-5H-pyrrolo[3,2-d]pyrimidin-5-yl)acetamide], the inhibition at 1 µM turned out to be 23.1% and the inhibition at 10 µM was 21.4%.
Turning to `CCN(CC)Cc1cn(CC(=O)Nc2nc(-c3ccc(C(F)(F)F)c(F)c3)cs2)c2c(=O)n(C)c(=O)n(C)c12` [Example 40, N-{4-[3-Fluoro-4-(trifluoromethyl)phenyl]-1,3-thiazol-2-yl}-2-{7-[(diethylamino)methyl]-1,3-dimethyl-2,4-dioxo-1,2,3,4-tetrahydro-5H-pyrrolo[3,2-d]pyrimidin-5-yl}acetamide], the inhibition at 1 µM was 48.5% and the inhibition at 10 µM turned out to be 86.2%.
Regarding `Cn1c(=O)c2c(ccn2CC(=O)Nc2nc(-c3cc(F)c(OCC(C)(C)C)c(F)c3)cs2)n(C)c1=O` [Example 8, N-{[4-(2,2-Dimethylpropoxy)-3,5-difluorophenyl]-1,3-thiazol-2-yl}-2-(1,3-dimethyl-2,4-dioxo-1,2,3,4-tetrahydro-5H-pyrrolo[3,2-d]pyrimidin-5-yl)acetamide], the inhibition at 1 µM turned out to be 91.9%, the inhibition at 10 µM was 100% and the half-inhibitory concentration (IC50) is less than 50 nM.
In the case of `Cn1c(=O)c2c(ccn2CC(=O)Nc2nc(-c3cc(F)c(OCCC(F)(F)F)c(F)c3)cs2)n(C)c1=O` [Example 12, N-{4-[3,5-Difluoro-4-(3,3,3-trifluoropropoxy)phenyl]-1,3-thiazol-2-yl}-2-(1,3-dimethyl-2,4-dioxo-1,2,3,4-tetrahydro-5H-pyrrolo[3,2-d]pyrimidin-5-yl)acetamide], the inhibition at 1 µM was determined as 97.4%, the inhibition at 10 µM worked out at 96% and the IC50 was less than 50 nM.
`Cn1nc2c(c1CC(=O)Nc1nc(-c3cc(F)cc(F)c3)cs1)c(=O)n(C)c(=O)n2C` [Example 52, N-[4-(3,5-Difluorophenyl)-1,3-thiazol-2-yl]-2-(2,5,7-trimethyl-4,6-dioxo-4,5,6,7-tetrahydro-2H-pyrazolo[3,4-d]pyrimidin-3-yl)acetamide]: the inhibition at 1 µM amounted to 37.8% and the inhibition at 10 µM amounted to 64.8%.
For the molecule `Cn1nc2c(c1CC(=O)Nc1nc(-c3ccc(F)cc3F)cs1)c(=O)n(C)c(=O)n2C` [Example 50, N-[4-(2,4-Difluorophenyl)-1,3-thiazol-2-yl]-2-(2,5,7-trimethyl-4,6-dioxo-4,5,6,7-tetrahydro-2H-pyrazolo[3,4-d]pyrimidin-3-yl)acetamide], the inhibition at 1 µM was determined as 0% and the inhibition at 10 µM was 19.8%.
Turning to `Cn1nc2c(c1CC(=O)Nc1nc(-c3ccc(OC(F)F)c(F)c3)cs1)c(=O)n(C)c(=O)n2C` [Example 61, N-{4-[4-(Difluoromethoxy)-3-fluorophenyl]-1,3-thiazol-2-yl}-2-(2,5,7-trimethyl-4,6-dioxo-4,5,6,7-tetrahydro-2H-pyrazolo[3,4-d]pyrimidin-3-yl)acetamide], the inhibition at 1 µM amounted to 86%, the inhibition at 10 µM was determined as 98.3% and the IC50 was 50 to 100 nM.
For the molecule `Cn1nc2c(c1CC(=O)Nc1nc(-c3cccc(C(F)(F)F)c3F)cs1)c(=O)n(C)c(=O)n2C` [Example 55, N-{4-[2-Fluoro-3-(trifluoromethyl)phenyl]-1,3-thiazol-2-yl}-2-(2,5,7-trimethyl-4,6-dioxo-4,5,6,7-tetrahydro-2H-pyrazolo[3,4-d]pyrimidin-3-yl)acetamide], the inhibition at 1 µM amounted to 92.2%, the inhibition at 10 µM is 99.2% and the IC50 lay within 50 to 100 nM.
Take `Cn1c(=O)c2c(CC(=O)Nc3nc(-c4ccc(F)c(C(F)(F)F)c4F)cs3)cn(C)c2n(C)c1=O` [Example 43, N-{4-[2,4-Difluoro-3-(trifluoromethyl)phenyl]-1,3-thiazol-2-yl}-2-(1,3,7-trimethyl-2,4-dioxo-2,3,4,7-tetrahydro-1H-pyrrolo[2,3-d]pyrimidin-5-yl)acetamide]: the inhibition at 1 µM came out at 30.1% and the inhibition at 10 µM was 41.6%.
On to `Cn1c(=O)c2c(ccn2CC(=O)Nc2nc(-c3cc(F)c(OCc4ccc(C(F)(F)F)cc4)c(F)c3)cs2)n(C)c1=O` [Example 21, 2-(1,3-Dimethyl-2,4-dioxo-1,2,3,4-tetrahydro-5H-pyrrolo[3,2-d]pyrimidin-5-yl)-N-{4-[3,5-difluoro-4-[4-(trifluoromethyl)benzyloxy]phenyl)-1,3-thiazol-2-yl}acetamide], for which the inhibition at 1 µM is 11.2% and the inhibition at 10 µM is 16.2%.
